Test results: patent US8247211B2, “Glycopeptide antibiotics” (American Cyanamid Company, priority 2001, dated 2012)
Values after ≈ are worked out from the molar mass of the structure shown.

Columns and labels:
Assay in all cases: In vitro antibacterial evaluation: minimum inhibitory concentration (MIC), broth dilution method
Format in all cases: cell-based
Settings in all cases: 18 hours at 35° C.
[1] = test system: Enterococcus sp.
Outline: (§1)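 MIC read as lowest drug level preventing visible growth. Organisms at 5×10^5 CFU/mL were exposed to a 64-0.06 μg/mL dilution series in Muller-Hinton II […] following NCCLS broth dilution standard M7-A2.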

[2] = test system: Escherichia coli
Outline: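 NCCLS M7-A2 broth dilution with Mueller-Hinton II, testing 64-0.06 μg/mL antibiotic against 5×10^5 CFU/mL inocula. Test strains include recent methicillin-, penicillin- or vancomycin-resistant clinical isolates. MIC is the lowest concentration preventing growth.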

[3] = test system: Staphylococcus sp.
Outline: as §1

[4] = test system: Streptococcus sp.
Outline: as §1

[5] = Enterococcus faecalis (GC 2242)
[6] = Enterococcus faecalis (GC 2691)
[7] = Enterococcus faecalis (GC 3059)
[8] = broth dilution, inoculum 5×10^5 CFU/mL
[9] = Streptococcus agalactiae (GC 4564)
[10] = Streptococcus pneumoniae (ATCC 6301)
[11] = Streptococcus pneumoniae (GC 1894)
[12] = Streptococcus pneumoniae (GC 4565)
[13] = Streptococcus pyogenes (GC 4563)

## CC(c1ccccc1)C1NC(=O)CNC(=O)C(CO)NC(=O)C(C(O)C2CNC(=N)N2C2OC(CO)C(O)C(O)C2O)NC(=O)C(C(O)C2CNC(=N)N2)NC(=O)C(Cc2ccc(OC3OC(CO)C(OC4OC(COCc5cccs5)C(O)C(O)C4O)C(O)C3O)cc2)NC1=O (stereo not drawn) [Example 244, Cyclo[glycyl-β-methylphenylalanyl-O-[4-O-[6-O-(2-thienylmethyl)hexopyranosyl]hexopyranosyl]tyrosyl-3-(2-iminoimidazolidin-4-yl)seryl-3-(3-hexopyranosyl-2-iminoimidazolidin-4-yl)serylseryl]]
[1]
  MIC Enterococcus avium (GC 4558): 32 µg/mL (≈ 23 µM)
  MIC Enterococcus faecalis (ATCC 29212): 32 µg/mL (≈ 23 µM)
  MIC Enterococcus faecalis (GC 4552): 32 µg/mL (≈ 23 µM)
  MIC Enterococcus faecalis (GC 4553): 32 µg/mL (≈ 23 µM)
  MIC Enterococcus faecalis (GC 4554): 64 µg/mL (≈ 46 µM)
  MIC Enterococcus faecalis (GC 6189): 32 µg/mL (≈ 23 µM)
  MIC Enterococcus faecium (GC 2243): 32 µg/mL (≈ 23 µM)
  MIC Enterococcus faecium (GC 4556): 32 µg/mL (≈ 23 µM)
  MIC Enterococcus faecium (GC 4557): 4 µg/mL (≈ 2.87 µM)
[1]; [5]
  MIC Enterococcus faecalis (GC 2242): 32 µg/mL (≈ 23 µM)
[1]; [6]
  MIC Enterococcus faecalis (GC 2691): 32 µg/mL (≈ 23 µM)
[1]; [7]
  MIC Enterococcus faecalis (GC 3059): 64 µg/mL (≈ 46 µM)
[1]; [8]
  MIC Enterococcus faecalis (GC 2242): 32 µg/mL (≈ 23 µM)
  MIC Enterococcus faecalis (GC 2691): 32 µg/mL (≈ 23 µM)
  MIC Enterococcus faecalis (GC 3059): 64 µg/mL (≈ 46 µM)
[2]; Escherichia coli (ATCC 25922)
  MIC Escherichia coli (ATCC 25922): >64 µg/mL
[2]
  MIC Escherichia coli (GC 4559): 64 µg/mL (≈ 46 µM)
  MIC Escherichia coli (GC 4560): 2 µg/mL (≈ 1.44 µM)
[3]
  MIC Coagulase Negative Staphylococcus (GC 4547): 4 µg/mL (≈ 2.87 µM)
  MIC Coagulase Negative Staphylococcus (GC 4548): 2 µg/mL (≈ 1.44 µM)
  MIC Coagulase Negative Staphylococcus (GC 4549): 2 µg/mL (≈ 1.44 µM)
  MIC Coagulase Negative Staphylococcus (GC 4551): 4 µg/mL (≈ 2.87 µM)
  MIC Coagulase Negative Staphylococcus (GC 6257): 2 µg/mL (≈ 1.44 µM)
  MIC Staphylococcus aureus (ATCC 29213): 8 µg/mL (≈ 5.75 µM)
  MIC Staphylococcus aureus (GC 1131): 8 µg/mL (≈ 5.75 µM)
  MIC Staphylococcus aureus (GC 3051): 8 µg/mL (≈ 5.75 µM)
  MIC Staphylococcus aureus (GC 3053): 16 µg/mL (≈ 11.5 µM)
  MIC Staphylococcus aureus (GC 4541): 8 µg/mL (≈ 5.75 µM)
  MIC Staphylococcus aureus (GC 4542): 1 µg/mL (≈ 0.719 µM)
  MIC Staphylococcus aureus (GC 4544): 8 µg/mL (≈ 5.75 µM)
  MIC Staphylococcus aureus (GC 4545): 8 µg/mL (≈ 5.75 µM)
  MIC Staphylococcus aureus-SMITH (GC 4543): 4 µg/mL (≈ 2.87 µM)
  MIC Staphylococcus haemolyticus (GC 4546): 4 µg/mL (≈ 2.87 µM)
[4]; [9]
  MIC Streptococcus agalactiae (GC 4564): 4 µg/mL (≈ 2.87 µM)
[4]; [10]
  MIC Streptococcus pneumoniae (ATCC 6301): 1 µg/mL (≈ 0.719 µM)
[4]; [11]
  MIC Streptococcus pneumoniae (GC 1894): 0.5 µg/mL (≈ 0.359 µM)
[4]; [12]
  MIC Streptococcus pneumoniae (GC 4565): 1 µg/mL (≈ 0.719 µM)
[4]; [13]
  MIC Streptococcus pyogenes (GC 4563): 2 µg/mL (≈ 1.44 µM)
[4]; [8]
  MIC Streptococcus agalactiae (GC 4564): 4 µg/mL (≈ 2.87 µM)
  MIC Streptococcus pneumoniae (ATCC 6301): 1 µg/mL (≈ 0.719 µM)
  MIC Streptococcus pneumoniae (GC 1894): 0.5 µg/mL (≈ 0.359 µM)
  MIC Streptococcus pneumoniae (GC 4565): 1 µg/mL (≈ 0.719 µM)
  MIC Streptococcus pyogenes (GC 4563): 2 µg/mL (≈ 1.44 µM)

## COc1ccc2cc(COC3C(OC4C(CO)OC(Oc5ccc(CC6NC(=O)C(C(C)c7ccccc7)NC(=O)CNC(=O)C(CO)NC(=O)C(CC7CNC(=N)N7C7OC(CO)C(O)C(O)C7O)NC(=O)C(CC7CNC(=N)N7)NC6=O)cc5)C(O)C4O)OC(CO)C(O)C3O)ccc2c1 (centres unmarked) [Example 245c, Cyclo[3-(2-iminoimidazolidin-4-yl)alanyl-3-(3-hexopyranosyl-2-iminoimidazolidin-4-yl)-alanylserylglycyl-62-methylphenylalanyl-O-[4-O-[2-O-[(6-methoxy-2-naphthyl)methyl]-hexopyranosyl]hexopyranosyl]tyrosyl]]
[1]
  MIC Enterococcus faecium (GC 4557): 64 µg/mL (≈ 44.6 µM)
[2]
  MIC Escherichia coli (GC 4560): 32 µg/mL (≈ 22.3 µM)
[3]
  MIC Coagulase Negative Staphylococcus (GC 4549): 64 µg/mL (≈ 44.6 µM)
  MIC Coagulase Negative Staphylococcus (GC 6257): 64 µg/mL (≈ 44.6 µM)
[4]; [10]
  MIC Streptococcus pneumoniae (ATCC 6301): 64 µg/mL (≈ 44.6 µM)
[4]; [11]
  MIC Streptococcus pneumoniae (GC 1894): 32 µg/mL (≈ 22.3 µM)
[4]; [12]
  MIC Streptococcus pneumoniae (GC 4565): 64 µg/mL (≈ 44.6 µM)
[4]; [8]
  MIC Streptococcus pneumoniae (ATCC 6301): 64 µg/mL (≈ 44.6 µM)
  MIC Streptococcus pneumoniae (GC 1894): 32 µg/mL (≈ 22.3 µM)
  MIC Streptococcus pneumoniae (GC 4565): 64 µg/mL (≈ 44.6 µM)

## CC(c1ccccc1)C1NC(=O)CNC(=O)C(CO)NC(=O)C(CC2CNC(=N)N2C2OC(CO)C(O)C(O)C2O)NC(=O)C(CC2CNC(=N)N2)NC(=O)C(Cc2ccc(OC3OC(CO)C(OC4OC(COCc5ccc(OCc6ccccc6)cc5)C(O)C(O)C4O)C(O)C3O)cc2)NC1=O (stereo not drawn) [Example 246, Cyclo[3-(2-iminoimidazolidin-4-yl)alanyl-3-(3-hexopyranosyl-2-iminoimidazolidin-4-yl)-alanylserylglycyl-β-methylphenylalanyl-O-[4-O-[6-O-[4-(phenylmethoxy)benzyl]hexopyranosyl]hexopyranosyl]tyrosyl]]
[1]
  MIC Enterococcus avium (GC 4558): 8 µg/mL (≈ 5.48 µM)
  MIC Enterococcus faecalis (ATCC 29212): 16 µg/mL (≈ 11 µM)
  MIC Enterococcus faecalis (GC 4552): 16 µg/mL (≈ 11 µM)
  MIC Enterococcus faecalis (GC 4553): 8 µg/mL (≈ 5.48 µM)
  MIC Enterococcus faecalis (GC 4554): 32 µg/mL (≈ 21.9 µM)
  MIC Enterococcus faecalis (GC 6189): 16 µg/mL (≈ 11 µM)
  MIC Enterococcus faecium (GC 2243): 16 µg/mL (≈ 11 µM)
  MIC Enterococcus faecium (GC 4556): 16 µg/mL (≈ 11 µM)
  MIC Enterococcus faecium (GC 4557): 4 µg/mL (≈ 2.74 µM)
[1]; [5]
  MIC Enterococcus faecalis (GC 2242): 16 µg/mL (≈ 11 µM)
[1]; [6]
  MIC Enterococcus faecalis (GC 2691): 32 µg/mL (≈ 21.9 µM)
[1]; [7]
  MIC Enterococcus faecalis (GC 3059): 32 µg/mL (≈ 21.9 µM)
[1]; [8]
  MIC Enterococcus faecalis (GC 2242): 16 µg/mL (≈ 11 µM)
  MIC Enterococcus faecalis (GC 2691): 32 µg/mL (≈ 21.9 µM)
  MIC Enterococcus faecalis (GC 3059): 32 µg/mL (≈ 21.9 µM)
[2]
  MIC Escherichia coli (GC 4559): 64 µg/mL (≈ 43.8 µM)
  MIC Escherichia coli (GC 4560): 4 µg/mL (≈ 2.74 µM)
[3]
  MIC Coagulase Negative Staphylococcus (GC 4547): 4 µg/mL (≈ 2.74 µM)
  MIC Coagulase Negative Staphylococcus (GC 4548): 4 µg/mL (≈ 2.74 µM)
  MIC Coagulase Negative Staphylococcus (GC 4549): 4 µg/mL (≈ 2.74 µM)
  MIC Coagulase Negative Staphylococcus (GC 4551): 8 µg/mL (≈ 5.48 µM)
  MIC Coagulase Negative Staphylococcus (GC 6257): 2 µg/mL (≈ 1.37 µM)
  MIC Staphylococcus aureus (ATCC 29213): 4 µg/mL (≈ 2.74 µM)
  MIC Staphylococcus aureus (GC 1131): 8 µg/mL (≈ 5.48 µM)
  MIC Staphylococcus aureus (GC 3051): 4 µg/mL (≈ 2.74 µM)
  MIC Staphylococcus aureus (GC 3053): 4 µg/mL (≈ 2.74 µM)
  MIC Staphylococcus aureus (GC 4541): 4 µg/mL (≈ 2.74 µM)
  MIC Staphylococcus aureus (GC 4542): 4 µg/mL (≈ 2.74 µM)
  MIC Staphylococcus aureus (GC 4544): 8 µg/mL (≈ 5.48 µM)
  MIC Staphylococcus aureus (GC 4545): 4 µg/mL (≈ 2.74 µM)
  MIC Staphylococcus aureus-SMITH (GC 4543): 4 µg/mL (≈ 2.74 µM)
  MIC Staphylococcus haemolyticus (GC 4546): 4 µg/mL (≈ 2.74 µM)
[4]; [9]
  MIC Streptococcus agalactiae (GC 4564): 2 µg/mL (≈ 1.37 µM)
[4]; [10]
  MIC Streptococcus pneumoniae (ATCC 6301): 2 µg/mL (≈ 1.37 µM)
[4]; [11]
  MIC Streptococcus pneumoniae (GC 1894): 0.5 µg/mL (≈ 0.343 µM)
[4]; [12]
  MIC Streptococcus pneumoniae (GC 4565): 2 µg/mL (≈ 1.37 µM)
[4]; [13]
  MIC Streptococcus pyogenes (GC 4563): 4 µg/mL (≈ 2.74 µM)
[4]; [8]
  MIC Streptococcus agalactiae (GC 4564): 2 µg/mL (≈ 1.37 µM)
  MIC Streptococcus pneumoniae (ATCC 6301): 2 µg/mL (≈ 1.37 µM)
  MIC Streptococcus pneumoniae (GC 1894): 0.5 µg/mL (≈ 0.343 µM)
  MIC Streptococcus pneumoniae (GC 4565): 2 µg/mL (≈ 1.37 µM)
  MIC Streptococcus pyogenes (GC 4563): 4 µg/mL (≈ 2.74 µM)
